{"source": "patent US20240325451A1", "about": "“METHODS OF INDUCING ORGAN TRANSPLANTATION IMMUNE TOLERANCE AND ASSOCIATED COMPOSITIONS AND METHODS” (CITY OF HOPE, priority 2023, published 2024)", "test_system": "donor-type and host-type T, B and myeloid cells", "test": "Mixed chimerism status by flow cytometry", "conditions": "PB and SPL of Foxp3DTR MCs"}
{"substance": "diphtheria toxin [DT]", "values": [{"measurement": "MC status before and after treatment", "result": "did not have significant impact"}]}
